Source: the supplement of paper PMC11451515

Test system: SEM cells
Assay: cell viability relative to DMSO control; higher = less cytotoxic
Details: 48 h
In short: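 Cells were incubated for 48 h at 37°C before CellTiter-Glo One luminescence was read. The cells were NOMO1 or SEM (500 cells/well) or P12-Ichikawa (1000 cells/well) leukemia cells, adapted for at least four passages in each medium and seeded in 1536-well plates (5 μl). Dosing used library compounds in DMSO applied by pin over 11 threefold points, 47 μM to 0.79 nM. Viability is the per-plate percentage of DMSO wells, with cell-free wells as background.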

[1] = HPLM + 10% dialyzed FBS, 0.000781 µM
[2] = HPLM + 10% dialyzed FBS, 0.00234 µM
[3] = HPLM + 10% dialyzed FBS, 0.00702 µM
[4] = HPLM + 10% dialyzed FBS, 0.0211 µM
[5] = HPLM + 10% dialyzed FBS, 0.0632 µM
[6] = HPLM + 10% dialyzed FBS, 0.19 µM
[7] = HPLM + 10% dialyzed FBS, 0.569 µM
[8] = HPLM + 10% dialyzed FBS, 1.71 µM
[9] = HPLM + 10% dialyzed FBS, 5.12 µM
[10] = HPLM + 10% dialyzed FBS, 15.4 µM
[11] = HPLM + 10% dialyzed FBS, 46.1 µM
[12] = RPMI 5 mM glucose + 10% FBS, 0.000781 µM
[13] = RPMI 5 mM glucose + 10% FBS, 0.00234 µM
[14] = RPMI 5 mM glucose + 10% FBS, 0.00702 µM
[15] = RPMI 5 mM glucose + 10% FBS, 0.0211 µM
[16] = RPMI 5 mM glucose + 10% FBS, 0.0632 µM
[17] = RPMI 5 mM glucose + 10% FBS, 0.19 µM
[18] = RPMI 5 mM glucose + 10% FBS, 0.569 µM
[19] = RPMI 5 mM glucose + 10% FBS, 1.71 µM
[20] = RPMI 5 mM glucose + 10% FBS, 5.12 µM
[21] = RPMI 5 mM glucose + 10% FBS, 15.4 µM
[22] = RPMI 5 mM glucose + 10% FBS, 46.1 µM
[23] = RPMI 5 mM glucose + 10% dialyzed FBS, 0.000781 µM
[24] = RPMI 5 mM glucose + 10% dialyzed FBS, 0.00234 µM
[25] = RPMI 5 mM glucose + 10% dialyzed FBS, 0.00702 µM
[26] = RPMI 5 mM glucose + 10% dialyzed FBS, 0.0211 µM
[27] = RPMI 5 mM glucose + 10% dialyzed FBS, 0.0632 µM
[28] = RPMI 5 mM glucose + 10% dialyzed FBS, 0.19 µM
[29] = RPMI 5 mM glucose + 10% dialyzed FBS, 0.569 µM
[30] = RPMI 5 mM glucose + 10% dialyzed FBS, 1.71 µM
[31] = RPMI 5 mM glucose + 10% dialyzed FBS, 5.12 µM
[32] = RPMI 5 mM glucose + 10% dialyzed FBS, 15.4 µM
[33] = RPMI 5 mM glucose + 10% dialyzed FBS, 46.1 µM

| Structure (SMILES) | cell viability [1] | cell viability [2] | cell viability [3] | cell viability [4] | cell viability [5] | cell viability [6] | cell viability [7] | cell viability [8] | cell viability [9] | cell viability [10] | cell viability [11] | cell viability [12] | cell viability [13] | cell viability [14] | cell viability [15] | cell viability [16] | cell viability [17] | cell viability [18] | cell viability [19] | cell viability [20] | cell viability [21] | cell viability [22] | cell viability [23] | cell viability [24] | cell viability [25] | cell viability [26] | cell viability [27] | cell viability [28] | cell viability [29] | cell viability [30] | cell viability [31] | cell viability [32] | cell viability [33] |
| --- | --- | --- | --- | --- | --- | --- | --- | --- | --- | --- | --- | --- | --- | --- | --- | --- | --- | --- | --- | --- | --- | --- | --- | --- | --- | --- | --- | --- | --- | --- | --- | --- | --- |
| CCCn1c(=O)c2[nH]c(-c3cnn(Cc4cccc(C(F)(F)F)c4)c3)nc2n(CC)c1=O | 100% | 109% | 111% | 120% | 109% | 124% | 124% | 113% | 107% | 109% | 95.4% | 95.8% | 89.9% | 106% | 109% | 103% | 108% | 99.8% | 94.4% | 116% | 109% | 90.5% | 109% | 109% | 111% | 111% | 116% | 124% | 109% | 104% | 112% | 117% | 98.4% |
| CC(=O)SCC(Cc1ccccc1)C(=O)NCC(=O)OCc1ccccc1 (configuration not stated) | 86.1% | 79.1% | 93.3% | 96.4% | 99% | 103% | 105% | 97.4% | 108% | 108% | 102% | 84.9% | 77.2% | 97.1% | 94% | 96% | 92.5% | 98.3% | 99.8% | 95.7% | 91.2% | 90.1% | 77.4% | 77.6% | 82.1% | 104% | 109% | 104% | 115% | 114% | 108% | 116% | 96.9% |
| CC1=C(/C=C/C(C)=C/C=C/C(C)=C/C(=O)Nc2ccc(O)cc2)C(C)(C)CCC1 | 84.5% | 77.4% | 81.4% | 104% | 86.9% | 83.9% | 85.1% | 42.5% | 23.1% | 5.89% | 3.35% | 85% | 85.5% | 92.2% | 96.9% | 81.4% | 88.6% | 83% | 65% | 30.7% | 9.06% | 3.24% | 76.8% | 71.5% | 80.1% | 85.3% | 76.6% | 80.8% | 82.2% | 37.5% | 20% | 4.93% | 2.92% |
| CC(Oc1ccc(O)cc1)(P(=O)(O)O)P(=O)(O)O | 108% | 105% | 98.2% | 108% | 109% | 104% | 86.1% | 101% | 83.3% | 65.5% | 28.5% | 107% | 110% | 103% | 116% | 109% | 96.2% | 92.3% | 105% | 83.1% | 48.4% | 25.1% | 98.8% | 85.7% | 103% | 97.9% | 113% | 110% | 90.1% | 96.3% | 74.9% | 55.1% | 28.6% |
| CCOc1cc2c(c(F)c1OCC)C(=N)N(CC(=O)c1cc(N3CCOCC3)c(OC)c(C(C)(C)C)c1)C2 | 96.2% | 95.6% | 95.7% | 101% | 94% | 110% | 117% | 108% | 104% | 97.8% | 59.8% | 110% | 98.1% | 93.9% | 113% | 111% | 103% | 114% | 121% | 108% | 107% | 52.5% | 83.9% | 105% | 99.8% | 101% | 119% | 116% | 117% | 124% | 117% | 125% | 74.4% |
| CC1(C)CC(=O)c2c(C(F)(F)F)nn(-c3ccc(C(N)=O)c(NC4CCC(OC(=O)CN)CC4)c3)c2C1 (configuration not stated) | 106% | 104% | 113% | 112% | 114% | 73.2% | 35.7% | 20.2% | 17% | 17.3% | 17.8% | 108% | 99.1% | 105% | 120% | 112% | 73.3% | 37.3% | 23.9% | 18.4% | 15.3% | 16.1% | 94.8% | 95.2% | 100% | 89.2% | 89.5% | 63.3% | 34.5% | 20.5% | 17.3% | 14.3% | 14.7% |
| CCCCCCCCCCCCCCCC(=O)OC[C@@H](NC(=O)C(Cl)Cl)[C@H](O)c1ccc([N+](=O)[O-])cc1 | 90.3% | 113% | 114% | 116% | 121% | 121% | 118% | 123% | 131% | 116% | 119% | 120% | 117% | 132% | 122% | 136% | 138% | 132% | 124% | 128% | 133% | 129% |  |  |  |  |  |  |  |  |  |  |  |
| CN(C)C(=O)COC(=O)Cc1ccc(OC(=O)c2ccc(NC(=N)N)cc2)cc1 | 107% | 113% | 122% | 112% | 125% | 126% | 119% | 119% | 112% | 118% | 61.2% | 102% | 110% | 126% | 117% | 130% | 126% | 139% | 130% | 114% | 107% | 61.7% |  |  |  |  |  |  |  |  |  |  |  |
